# Measurements published in patent US20180244611A1, “Modulators of the Cystic Fibrosis Transmembrane Conductance Regulator Protein and Methods of Use” (AbbVie S.à.r.l., priority 2017, published 2018).
# Tests used:
# F508delCFTR [1] = target: T1, F508delCFTR (Homo sapiens, UniProt P13569, DEL508-508); test: Cell Surface Expression-Horse Radish Peroxidase (CSE-HRP) assay, test compound with co-corrector; assay type: cell-based; conditions: with 2 μM co-corrector; for Maximum % activity (with co-corrector): maximum at any tested concentration, normalized to positive control;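 for Maximum % activity (with co-corrector): percent of 2 µM positive control corrector over DMSO; co-corrector is that same compound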
# T1 construct: expressed in transfected cells; host or cells: CFBE41o- human lung-derived epithelial cells (CFBE41o-F508delCFTR-HRP), doxycycline-inducible
# How it was run: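 CFBE41o- cells expressing F508delCFTR with HRP in the fourth exofacial loop, induced with 0.5 μg/mL doxycycline for 72 h, then treated 18-24 h at 33° C. with compound (8 points, top 20 μM, 3-fold) plus 2 μM co-corrector. Surface HRP read by luminol luminescence; activity normalised to positive control, EC50 from variable-slope sigmoidal fit.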
# F508delCFTR [2] = target: T1, F508delCFTR; test: Cell Surface Expression-Horse Radish Peroxidase (CSE-HRP) assay, test compound without co-corrector; assay type: cell-based; conditions: for Emax: maximum at any tested concentration, normalized to positive control, without co-corrector; for EC50: test compound without co-corrector;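 for Emax: percent of on-plate 2 µM positive control corrector response over DMSO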
# How it was run: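 CFBE41o- cells expressing F508delCFTR with HRP in the fourth exofacial loop, induced with 0.5 μg/mL doxycycline for 72 h at 37° C, then exposed to compound alone for 18-24 h at 33° C, 8-point 3-fold series from 20 μM. Surface HRP read by luminol luminescence, normalized to positive corrector control versus DMSO; EC50 from variable-slope sigmoidal fit of three replicate plates.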
# T1 sequence (P13569 with tags, fused parts or gaps DEL508-508): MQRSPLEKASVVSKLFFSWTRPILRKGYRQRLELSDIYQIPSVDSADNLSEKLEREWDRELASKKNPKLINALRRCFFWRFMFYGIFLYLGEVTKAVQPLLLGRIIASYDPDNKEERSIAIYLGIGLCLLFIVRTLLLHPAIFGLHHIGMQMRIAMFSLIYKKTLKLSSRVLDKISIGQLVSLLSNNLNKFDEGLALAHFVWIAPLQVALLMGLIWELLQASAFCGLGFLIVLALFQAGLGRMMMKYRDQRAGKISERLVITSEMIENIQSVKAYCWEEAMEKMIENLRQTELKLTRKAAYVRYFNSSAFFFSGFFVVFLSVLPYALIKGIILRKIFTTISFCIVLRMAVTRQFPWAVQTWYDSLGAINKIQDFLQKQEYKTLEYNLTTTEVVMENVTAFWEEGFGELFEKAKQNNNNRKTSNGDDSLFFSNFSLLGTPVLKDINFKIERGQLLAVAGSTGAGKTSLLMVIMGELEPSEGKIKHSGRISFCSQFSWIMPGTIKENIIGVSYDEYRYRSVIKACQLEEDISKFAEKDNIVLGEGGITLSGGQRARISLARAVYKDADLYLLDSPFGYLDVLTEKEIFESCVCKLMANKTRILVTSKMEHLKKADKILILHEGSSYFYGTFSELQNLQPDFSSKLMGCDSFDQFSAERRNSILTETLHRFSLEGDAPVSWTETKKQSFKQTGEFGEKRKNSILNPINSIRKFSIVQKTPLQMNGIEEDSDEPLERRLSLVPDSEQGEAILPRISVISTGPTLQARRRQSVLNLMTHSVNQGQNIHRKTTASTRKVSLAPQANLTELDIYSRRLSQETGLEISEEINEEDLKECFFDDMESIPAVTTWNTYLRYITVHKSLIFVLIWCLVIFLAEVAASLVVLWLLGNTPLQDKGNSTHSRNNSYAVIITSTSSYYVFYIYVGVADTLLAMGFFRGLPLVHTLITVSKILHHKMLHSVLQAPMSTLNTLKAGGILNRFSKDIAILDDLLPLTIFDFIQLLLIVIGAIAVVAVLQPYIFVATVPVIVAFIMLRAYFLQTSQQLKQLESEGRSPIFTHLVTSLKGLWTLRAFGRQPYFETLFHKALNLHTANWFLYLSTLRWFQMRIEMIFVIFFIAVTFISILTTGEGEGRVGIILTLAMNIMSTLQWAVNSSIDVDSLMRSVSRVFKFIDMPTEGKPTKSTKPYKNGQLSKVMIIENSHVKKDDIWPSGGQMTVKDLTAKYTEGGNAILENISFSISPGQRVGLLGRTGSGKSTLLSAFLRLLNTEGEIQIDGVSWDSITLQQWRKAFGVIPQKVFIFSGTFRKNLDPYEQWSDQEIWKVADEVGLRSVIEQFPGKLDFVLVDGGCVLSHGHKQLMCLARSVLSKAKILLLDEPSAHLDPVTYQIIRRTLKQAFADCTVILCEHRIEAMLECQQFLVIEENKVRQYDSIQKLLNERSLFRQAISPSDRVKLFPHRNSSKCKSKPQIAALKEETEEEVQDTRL
SMILES,Maximum % activity (with co-corrector) (F508delCFTR [1]),EC50 (F508delCFTR [1]) [µM],Emax (F508delCFTR [2]) [%],EC50 (F508delCFTR [2]) [µM]
O=C(NS(=O)(=O)c1cccc2ccccc12)C1CCCc2c(Cl)ccc(OCCN3CCOCC3)c21 (stereo not shown) [II-136],+++ (≥350),3 to 10,≥ 150,3 to 10
CC1(C(=O)NS(=O)(=O)Cc2ccccc2)CCc2c(Cl)cccc21 (stereo not shown) [III-3],+ (<150),≥ 10,< 50,≥ 10
Cc1nn(C)c(C)c1S(=O)(=O)NC(=O)C1CCc2c(Cl)cccc21 (stereo not shown) [III-4],+ (<150),≥ 10,< 50,≥ 10
COCCS(=O)(=O)NC(=O)C1CCc2c(Cl)cccc21 (stereo not shown) [III-5],+ (<150),≥ 10,< 50,≥ 10
CCCS(=O)(=O)NC(=O)C1CCc2c(Cl)cccc21 (stereo not shown) [III-6],+ (<150),≥ 10,< 50,≥ 10
COc1cccc2c1CC(C(=O)NS(=O)(=O)c1ccccc1C)CC2 (stereo not shown) [III-7],++ (≥150 and <350),3 to 10,< 50,≥ 10
COc1ccc2c(c1)CCC2C(=O)NS(=O)(=O)c1ccccc1C (stereo not shown) [III-9],+ (<150),≥ 10,< 50,≥ 10
Cc1ccccc1S(=O)(=O)NC(=O)C1CCc2ccccc2C1 (stereo not shown) [III-10],+ (<150),≥ 10,< 50,≥ 10
COc1cccc2c1CCC2C(=O)NS(=O)(=O)c1c(C)nn(C)c1C (stereo not shown) [III-11],+ (<150),≥ 10,< 50,≥ 10
COc1ccccc1S(=O)(=O)NC(=O)C1CCc2c(OC)cccc21 (stereo not shown) [III-12],+ (<150),3 to 10,< 50,≥ 10
COc1cccc2c1CCC2C(=O)NS(=O)(=O)c1ccc(C)cn1 (stereo not shown) [III-13],+ (<150),≥ 10,< 50,≥ 10
COc1cccc2c1CCC2C(=O)NS(=O)(=O)C1CCOCC1 (stereo not shown) [III-14],+ (<150),≥ 10,< 50,≥ 10
COCCCS(=O)(=O)NC(=O)C1CCc2c(OC)cccc21 (stereo not shown) [III-15],+ (<150),≥ 10,< 50,≥ 10
COCCS(=O)(=O)NC(=O)C1CCc2c(OC)cccc21 (stereo not shown) [III-16],+ (<150),≥ 10,< 50,≥ 10
CCCS(=O)(=O)NC(=O)C1CCc2c(OC)cccc21 (stereo not shown) [III-17],+ (<150),≥ 10,< 50,≥ 10
COc1ccccc1S(=O)(=O)NC(=O)C1CCc2c(Cl)cccc21 (stereo not shown) [III-18],+ (<150),≥ 10,< 50,≥ 10
Cc1ccc(S(=O)(=O)NC(=O)C2CCc3c(Cl)cccc32)nc1 (stereo not shown) [III-19],+ (<150),≥ 10,< 50,≥ 10
COc1cccc2c1CCC2C(=O)NS(=O)(=O)c1ccc(O)cc1 (stereo not shown) [III-20],+ (<150),≥ 10,< 50,≥ 10
COc1cccc2c1CCC2C(=O)NS(=O)(=O)Cc1ccccc1 (stereo not shown) [III-21],+ (<150),≥ 10,< 50,≥ 10

SMILES,Maximum % activity (with co-corrector) (F508delCFTR [1]),EC50 (F508delCFTR [1]) [µM],Emax (F508delCFTR [2]) [%],EC50 (F508delCFTR [2]) [µM]
COc1cccc2c1CCC2C(=O)NS(=O)(=O)c1ccc2cc(O)ccc2c1 (stereo not shown) [III-22],+ (<150),≥ 10,< 50,≥ 10
COc1cccc2c1CCC2C(=O)NS(=O)(=O)c1ccc(C)cc1 (stereo not shown) [III-23],++ (≥150 and <350),3 to 10,< 50,3 to 10
COc1cccc2c1CCC2C(=O)NS(=O)(=O)c1nnc(NC(C)=O)s1 (stereo not shown) [III-24],+ (<150),≥ 10,< 50,≥ 10
COc1cccc2c1CCC2C(=O)NS(=O)(=O)c1cc(C)ccc1C(C)C (stereo not shown) [III-25],+ (<150),3 to 10,< 50,≥ 10
COc1cccc2c1CCC2C(=O)NS(=O)(=O)c1ccc(S(C)(=O)=O)cc1 (stereo not shown) [III-26],+ (<150),≥ 10,< 50,≥ 10
COc1cccc2c1CCC2C(=O)NS(=O)(=O)c1cccc([N+](=O)[O-])c1 (stereo not shown) [III-27],+ (<150),≥ 10,< 50,≥ 10
COc1cccc2c1CCC2C(=O)NS(=O)(=O)c1ccc(Cl)c([N+](=O)[O-])c1 (stereo not shown) [III-28],+ (<150),≥ 10,< 50,≥ 10
COc1cccc2c1CCC2C(=O)NS(=O)(=O)c1cc([N+](=O)[O-])ccc1C (stereo not shown) [III-30],+ (<150),≥ 10,< 50,≥ 10
COc1cccc2c1CCC2C(=O)NS(=O)(=O)c1ccc(NC(C)=O)cc1C (stereo not shown) [III-31],+ (<150),≥ 10,< 50,≥ 10
COc1cccc2c1CCC2C(=O)NS(=O)(=O)c1ccc(Cl)cc1 (stereo not shown) [III-32],+ (<150),≥ 10,< 50,≥ 10
COc1cccc2c1CCC2C(=O)NS(=O)(=O)c1ccc(Cl)cc1[N+](=O)[O-] (stereo not shown) [III-33],++ (≥150 and <350),< 3,< 50,≥ 10
COc1cccc2c1CCC2C(=O)NS(=O)(=O)c1ccc2ccccc2c1 (stereo not shown) [III-34],+ (<150),≥ 10,< 50,≥ 10
COc1cccc2c1CCC2C(=O)NS(=O)(=O)c1cccc(Cl)c1 (stereo not shown) [III-35],++ (≥150 and <350),3 to 10,< 50,≥ 10
COc1cccc2c1CCC2C(=O)NS(=O)(=O)c1ccc(NC(=O)CC(C)=O)cc1 (stereo not shown) [III-36],+ (<150),≥ 10,< 50,≥ 10
COc1cccc2c1CCC2C(=O)NS(=O)(=O)c1ccc(Cl)cc1Cl (stereo not shown) [III-37],+ (<150),≥ 10,< 50,≥ 10
COc1cccc2c1CCC2C(=O)NS(=O)(=O)c1cc(C)c(N)cc1Cl (stereo not shown) [III-38],++ (≥150 and <350),3 to 10,< 50,≥ 10
COc1cccc2c1CCC2C(=O)NS(=O)(=O)c1cc(C)ccc1Cl (stereo not shown) [III-39],+ (<150),≥ 10,< 50,≥ 10
COc1cccc2c1CCC2C(=O)NS(=O)(=O)c1cc([N+](=O)[O-])ccc1Cl (stereo not shown) [III-40],+ (<150),≥ 10,< 50,≥ 10
